Assays:
hERG = hERG (Homo sapiens, UniProt Q12809); assay: Inhibition of hERG expressed in HEK cells assessed as remaining activity at 10 uM by automated patch clamp method relative to control; type: toxicity, cell-based; settings: HEK cells expressing hERG, read-out: Activity
[1] = Acute toxicity in ICR mouse assessed as change in heart weight at 30 to 300 mg/kg, po measured every other day for 14 days […]; type: organism-based; settings: in vivo, 336 h, dose 30-300 mg/kg, time 14 day
[2] = Acute toxicity in ICR mouse assessed as change in kidney weight at 30 to 300 mg/kg, po measured every other day for 14 days […]; type: organism-based; settings: in vivo, 336 h, dose 30-300 mg/kg, time 14 day
[3] = Cmax in Sprague-Dawley rat at 1 mg/kg, iv by LC-MS analysis; type: ADME, organism-based; settings: in vivo
[4] = AUC(0 to t) in Sprague-Dawley rat at 5 mg/kg, po by LC-MS analysis; type: ADME, organism-based; settings: in vivo
[5] = molecular target: T1, Amine oxidase [flavin-containing] B (Homo sapiens, UniProt P27338); assay: Inhibition of MAOB (unknown origin)
T1 sequence (P27338 whole entry): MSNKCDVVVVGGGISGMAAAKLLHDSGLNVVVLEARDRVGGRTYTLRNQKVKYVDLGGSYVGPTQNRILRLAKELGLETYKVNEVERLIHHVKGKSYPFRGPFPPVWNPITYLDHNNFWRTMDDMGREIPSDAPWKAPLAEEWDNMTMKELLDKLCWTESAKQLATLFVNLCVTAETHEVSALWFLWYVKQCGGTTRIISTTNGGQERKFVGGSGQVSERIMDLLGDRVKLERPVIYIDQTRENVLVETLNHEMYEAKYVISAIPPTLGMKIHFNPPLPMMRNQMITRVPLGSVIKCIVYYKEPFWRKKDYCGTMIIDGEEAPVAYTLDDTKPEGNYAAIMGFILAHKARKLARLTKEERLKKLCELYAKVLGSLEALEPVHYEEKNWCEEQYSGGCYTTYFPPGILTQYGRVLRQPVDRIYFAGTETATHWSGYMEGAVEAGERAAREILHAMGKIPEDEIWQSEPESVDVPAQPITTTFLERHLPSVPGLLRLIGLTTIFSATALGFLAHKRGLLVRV

[6] = molecular target: G-protein coupled estrogen receptor 1 (Homo sapiens, UniProt Q99527); assay: Inhibition of GPER1 (unknown origin)
Sequence of G-protein coupled estrogen receptor 1 (Q99527 whole entry): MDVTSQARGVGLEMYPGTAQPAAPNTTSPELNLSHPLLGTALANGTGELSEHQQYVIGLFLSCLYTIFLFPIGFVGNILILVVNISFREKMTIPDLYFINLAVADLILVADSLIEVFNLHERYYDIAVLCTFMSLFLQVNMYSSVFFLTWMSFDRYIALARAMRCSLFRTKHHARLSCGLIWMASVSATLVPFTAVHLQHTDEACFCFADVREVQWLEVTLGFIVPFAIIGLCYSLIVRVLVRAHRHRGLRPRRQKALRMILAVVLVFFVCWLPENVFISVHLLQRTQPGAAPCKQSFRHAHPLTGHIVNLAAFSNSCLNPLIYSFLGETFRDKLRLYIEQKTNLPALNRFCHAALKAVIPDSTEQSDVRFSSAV

HT-29 [7] = assay: Induction of apoptosis in human HT-29 cells assessed as viable cells at 5 uM incubated for 24 hrs by Annexin V FITC/PI staining based flow cytometry analysis ( Rvb = 99 +/- 0.1%); type: functional; settings: read-out: Activity
HT-29 [8] = assay: Induction of apoptosis in human HT-29 cells assessed as viable cells at 10 uM incubated for 24 hrs by Annexin V FITC/PI staining based flow cytometry analysis ( Rvb = 99 +/- 0.1%); type: functional; settings: read-out: Activity
U-937 = assay: Induction of apoptosis in human U-937 cells assessed as viable cells at 5 uM incubated for 24 hrs by Annexin V FITC/PI staining based flow cytometry analysis ( Rvb = 95.2 +/- 0.4%); type: functional; settings: read-out: Activity

Sequence of hERG (Q12809 whole entry): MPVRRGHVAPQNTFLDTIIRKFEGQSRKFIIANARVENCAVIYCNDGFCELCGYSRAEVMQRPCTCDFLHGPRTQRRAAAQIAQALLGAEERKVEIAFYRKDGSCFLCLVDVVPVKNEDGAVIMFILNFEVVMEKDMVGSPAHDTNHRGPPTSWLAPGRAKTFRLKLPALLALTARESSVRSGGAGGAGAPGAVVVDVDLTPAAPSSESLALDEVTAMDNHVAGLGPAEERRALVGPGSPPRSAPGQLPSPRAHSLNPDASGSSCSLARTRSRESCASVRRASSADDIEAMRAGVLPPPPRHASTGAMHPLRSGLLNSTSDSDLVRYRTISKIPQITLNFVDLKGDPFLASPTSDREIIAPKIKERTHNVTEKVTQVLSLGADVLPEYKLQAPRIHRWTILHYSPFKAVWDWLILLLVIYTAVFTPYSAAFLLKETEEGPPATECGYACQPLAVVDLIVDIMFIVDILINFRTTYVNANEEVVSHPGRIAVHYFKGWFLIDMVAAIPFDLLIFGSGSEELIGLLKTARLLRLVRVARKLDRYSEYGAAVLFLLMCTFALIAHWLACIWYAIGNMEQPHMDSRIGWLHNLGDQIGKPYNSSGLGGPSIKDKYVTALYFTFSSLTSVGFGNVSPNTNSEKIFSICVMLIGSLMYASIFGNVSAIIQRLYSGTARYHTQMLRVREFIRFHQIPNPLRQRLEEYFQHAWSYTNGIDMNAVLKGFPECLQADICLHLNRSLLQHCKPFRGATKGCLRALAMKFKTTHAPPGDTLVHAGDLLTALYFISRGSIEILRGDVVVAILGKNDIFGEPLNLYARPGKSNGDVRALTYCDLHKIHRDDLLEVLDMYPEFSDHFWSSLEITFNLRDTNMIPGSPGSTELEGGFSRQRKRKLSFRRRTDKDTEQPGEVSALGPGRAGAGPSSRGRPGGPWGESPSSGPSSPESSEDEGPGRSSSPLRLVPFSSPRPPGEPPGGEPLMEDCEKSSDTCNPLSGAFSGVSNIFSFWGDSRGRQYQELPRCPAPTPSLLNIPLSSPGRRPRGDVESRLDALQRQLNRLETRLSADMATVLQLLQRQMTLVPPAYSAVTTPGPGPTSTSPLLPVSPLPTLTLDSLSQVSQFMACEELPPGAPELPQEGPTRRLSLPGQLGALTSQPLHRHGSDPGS

For Cc1nc(NC(=O)c2sc3cc(F)ccc3c2Cl)c(C)c(C)c1O, which activity at 10 µM (hERG) is on record?
Its activity at 10 µM is 91.7%.

What about the Activity [1] of the same compound?
The Activity was “Non-Toxic”.

What about the Activity [2] of the same compound?
Its Activity is “Non-Toxic”.

And the Cmax [3]?
The Cmax was 1880 ng/mL.

And the AUCt [4]?
The AUCt was 1849.2 ng·h/mL.

And the IC50 [5]?
The IC50 was 54 nM.

And the EC50 [6]?
The EC50 was 480 nM.

What about the viability at 5 µM (HT-29 [7]) of the same compound?
The viability at 5 µM was 98.7%.

What about the viability at 10 µM (HT-29 [8]) of the same compound?
Its viability at 10 µM is 98.6%.

What about the viability at 5 µM (U-937) of the same compound?
Its viability at 5 µM is 95.2%.

— ChEMBL document CHEMBL5523723, “G Protein-Coupled Estrogen Receptor-Mediated Anti-Inflammatory and Mucosal Healing Activity of a Trimethylpyridinol Analogue in Inflammatory Bowel Disease” (J Med Chem, 2024)
